Test results reported in patent publication US9232792B2, “Method for promoting plant growth” (SUMITOMO CHEMICAL COMPANY, LIMITED, priority 2011, dated 2016).

Key:
Type in all cases: in vivo
[1] = test system: Rice (cultivar: Nipponbare); experiment: Test Example 1: promotion of root growth in hydroponics of rice; conditions: 1 ppm in hydroponic solution; 3 days germination + 3 days cultivation
Method: Rice (cultivar: Nipponbare)
DMSO solutions containing each of the present compounds 1 to 3 at 10,000 ppm were prepared. A 1/10,000 volume of each DMSO solution containing each of the present compounds 1 to 3 at 10,000 ppm was added to a Hoagland solution for hydroponics at ¼ concentration (Hoagland and Arnon, California Agricultural Experiment Station 1950 Circular 347 pp. 34) to obtain a solution for hydroponics containing each of the present compounds 1 to 3 at 1 ppm. These solutions were used in the treated-group.
In a non-treated group, a solution for hydroponics obtained by adding a Hoagland solution for hydroponics at ¼ concentration to a 1/10,000 volume of DMSO was used.
The rice seeds were immersed in an aqueous solution of 1% sodium hypochlorite for 10 minutes, followed by 70% ethanol solution to sterilize their surfaces. After that, the seeds were washed with distilled water. The sterilized seeds were immersed in each solution for hydroponics containing the test compound at the given concentration, and incubated at a temperature of 28° C. for 3 days under dark conditions to stimulate the germination of the seeds.
Then, 30 ml of each solution for hydroponics containing the test compound at the given concentration was dispensed into a plastic tube (20 mm in diameter×113 mm in height) covered with a cardboard on the lateral surface for blocking a light. A float made of a styrene board and a vinyl mesh was placed on the water surface of each solution for hydroponics, and the rice seeds obtained after the stimulation of germination were placed on the float. The seeds were cultivated for 3 days under the conditions of an illuminance of 4,000 lux at the top of the tube, a temperature of 26° C., a humidity of 50%, and a day length of 16 hours.
The root length of the rice seedlings obtained after the cultivation was measured by using WinRHIZO system (manufactured by REGENT INSTRUMENTS). The average value of the root length in the treated group was calculated from the measurement values of 4 or 5 individuals. […]

[2] = test system: Tobacco (Nicotiana benthamiana); experiment: Test Example 4: reduction of low-temperature stress in hydroponics of tobacco; conditions: 10 ppm in medium; 1.5±1.0° C. for 7 days, then 3 days at 22° C.
Method: Tobacco (Nicotiana benthamiana)
DMSO solutions containing each of the present compounds 1 to 4 at a concentration of 10,000 ppm were prepared. A 1/1,000 volume of each DMSO solution was added to a Murashige-and-Skoog medium (a medium containing 2.3 g of a mixture of salts for Murashige-and-Skoog medium (manufactured by Wako. Pure Chemical Industries, Ltd.), 200 mg of myoinositol (manufactured by Sigma-Aldrich), 2 mg of nicotinic acid (manufactured by Wako Pure Chemical Industries, Ltd.), 2 mg of pyridoxine hydrochloride (manufactured by Wako Pure Chemical Industries, Ltd.), 20 mg of thiamine hydrochloride (manufactured by Wako Pure Chemical Industries, Ltd.), 20 g of sucrose (manufactured by Wako Pure Chemical Industries, Ltd.), 1 g of MES (manufactured by DOJINDO LABORATORIES) in 1 L of water, adjusted to pH 5.8) at ½ concentration to obtain a medium containing the test compound at a concentration of 10 ppm. These media were used in the treated-group.
In a non-treated group, a medium obtained by adding a 1/1,000 volume of DMSO to a Murashige-and-Skoog medium at ½ concentration was used.
The seeds of tobacco (Nicotiana benthamiana) were sown on 5 μL of the medium, and incubated at 22° C. overnight. Thereto was added 45 μL of a medium containing each present compound at a concentration of 10 ppm, and cultivated for 7 days under the conditions of an illuminance of 4,000 lux, a temperature of 22° C. and a day length of 16 hours, thereby treating the seedlings of tobacco (Nicotiana benthamiana) with the test compound.
In the non-treated group, 45 μL of a medium obtained by adding a 1/1,000 volume of DMSO to a Murashige-and-Skoog medium at ½ concentration was added, and treated in the same manner as above.
The seedlings of tobacco (Nicotiana benthamiana) treated with the present compounds were cultivated for 7 days under the conditions of an illuminance of 2,000 lux, a temperature of 1.5±1.0° C., and a day length of 16 hours, thereby subjecting to low-temperature stress treatment.
The plants of tobacco (Nicotiana benthamiana) subjected to low-temperature stress treatment was cultivated for 3 days under the conditions of an illuminance of 4,000 lux, a temperature of 22° C., and a day length of 16 hours, and then the green leaf area of the plants was visually evaluated. Completely dead plant was scored as 0, the plant without low-temperature stress treatment was scored as 5, the green area was rated on a 6-point scale in ⅕ increments, and the score of not less than 1 was regarded as effective in reducing the stress. As a result of visual evaluation, the green leaf area of plants in the treated group, wherein the plants were treated with the present compound 1, 2, 3 or 4 was much larger than that in the non-treated group.

[3] = test system: Corn (cultivar: Kuromochi); experiment: Test Example 5: reduction of low-temperature stress by treatment of corn seeds; conditions: 2.5±1° C. for 4 days, then 4 days at 27° C.
Method: Corn (cultivar: Kuromochi) A blank slurry solution containing 10% (V/V) color coat red (Becker Underwood, Inc.), 10% (V/V) CF-Clear (Becker Underwood, Inc.) and 1.66% Maxim 4FS (Syngenta) was prepared. A slurry solution was prepared by dissolving the present compound 1 in the blank slurry solution such that 0.5 g, 5 g or 50 g of the compound is applied to each 100 kg of corn seeds. In a 50-ml centrifuge tube (manufactured by BD Japan), 0.35 ml of the slurry solution was placed for each 14.4 g of corn seeds and stirred until the solution was dried, thereby coating the seeds. In addition, seeds were coated with the blank slurry solution and used as seeds for a non-treated group. One of the treated corn seeds was sown in culture soil (AISAI) in each pot (55 mm in diameter×58 mm in height) and cultivated for 10 days under the conditions of a temperature of 27° C., an illuminance of 5,000 lux, and a day length of 16 hours. The grown seedlings were used for the test. The pots at 10 days after the sowing were placed into an artificial weather control room (VHT-2-[…]-NC2-S, manufactured by Nippon Medical & Chemical Instruments Co., Ltd) and cultivated for 4 days under the following conditions: -temperature: 2.5±1° C., day length: 16 hours, and illuminance: 5,000 lux. After the low-temperature stress treatment, the plants were cultivated for 4 days under the conditions of a temperature of 27° C., an illuminance of 5,000 lux, and a day length of 16 hours. Then, the fresh weight of the overground part of the plants was measured. The experiment was performed in four replications for each treatment condition and the average weight per individual was calculated. As a result, the fresh weight of the overground part of plants in the treated group of applying 0.5 g, 5 g or 50 g of the present compound 1 to each 100 kg of seeds was much heavier than that in the non-treated group.

SMILES: O=C(O)c1cc2cc(C(F)(F)F)ccc2s1 [The present compound 1, 5-(trifluoromethyl)benzo[b]thiophene-2-carboxylic acid]
- root length of the rice seedlings vs non-treated group [1]: much longer
- green leaf area of plants (visual evaluation) vs non-treated group [2]: much larger
- fresh weight of the overground part of plants vs non-treated group ([3]; seed treatment 0.5 g per 100 kg of seeds): much heavier
- fresh weight of the overground part of plants vs non-treated group ([3]; seed treatment 5 g per 100 kg of seeds): much heavier
- fresh weight of the overground part of plants vs non-treated group ([3]; seed treatment 50 g per 100 kg of seeds): much heavier
